According to patent publication US8217041B2, “Indene derivatives, their preparation and use as medicaments” (Laboratories del Sr. Esteve, S.A., priority 2005, dated 2012):
Where two headings read alike, the source gives them in different places.

Molecular target: T1, 5HT6 human recombinant receptor (Homo sapiens, UniProt P50406)
T1 construct: purchased Receptor Biology; host or cells: HEK-293 cell membranes
Assay: Binding test to 5-HT6 receptors ([3H]-LSD displacement, HEK-293 cell membranes)
Conditions: for inhibition at 0.1 µM: read-out: % Inhibition 10^−7 M; for inhibition at 0.01 µM: read-out: % Inhibition 10^−8 M; for Ki: inhibition constant by non-linear regression (EBDA/LIGAND), [3H]-LSD 2.7 nM; for inhibition at 1 µM: compound concentration 10^−6 M
Experimental: Binding Test to 5-HT6 Receptors
Membranes of HEK-293 cells expressing the 5HT6 human recombinant receptor were supplied by Receptor Biology. In these membranes the receptor concentration is 2.18 pmol/mg protein and the protein concentration is 9.17 mg/ml. The experimental protocol follows the method of B. L. Roth et al. [B. L. Roth, S. C. Craigo, M. S. Choudhary, A. Uluer, F. J. Monsma, Y. Shen, H. Y. Meltzer, D. R. Sibley: Binding of Typical and Atypical Antipsychotic Agents to 5-Hydroxytryptamine-6 and Hydroxytriptamine-7 Receptors. The Journal of Pharmacology and Experimental Therapeutics, 1994, 268, 1403] with slight modifications. The commercial membrane is diluted (dilution 1:40) with the binding buffer: 50 mM Tris-HCl, 10 mM MgCl2, 0.5 mM EDTA (pH 7.4). The radioligand used is [^3H]-LSD at a concentration of 2.7 nM with a final volume of 200 μl. Incubation is initiated by adding 100 μl of the membrane suspension (≈22.9 μg membrane protein), and continues for 60 minutes at a temperature of 37° C. Incubation ends by fast filtration in a Harvester Brandel Cell through glass fibre filters manufactured by Schleicher & Schuell GF 3362 pre-treated with a 0.5% polyethylenimine solution. The filters are washed three times with three milliliters of Tris-HCl 50 mM pH 7.4 buffer. The filters are transferred to vials and to each vial 5 ml of liquid scintillation cocktail Ecoscint H is added. The vials are allowed to reach equilibrium for several hours before being counted in a Wallac Winspectral 1414 scintillation counter. Non-specific binding is determined in the presence of 100 μM serotonin. The tests are performed in triplicate. The inhibition constants (Ki, nM) are calculated by non-linear regression analysis using the program EBDA/LIGAND [Munson and Rodbard, Analytical Biochemistry, 1980, 107, 220].

[1] = compound concentration 10^−7 M, radioligand [3H]-LSD 2.7 nM, 60 min, 37° C.
[2] = compound concentration 10^−8 M, radioligand [3H]-LSD 2.7 nM, 60 min, 37° C.
[3] = radioligand [3H]-LSD 2.7 nM, 60 min, 37° C.

T1 sequence (P50406 whole entry): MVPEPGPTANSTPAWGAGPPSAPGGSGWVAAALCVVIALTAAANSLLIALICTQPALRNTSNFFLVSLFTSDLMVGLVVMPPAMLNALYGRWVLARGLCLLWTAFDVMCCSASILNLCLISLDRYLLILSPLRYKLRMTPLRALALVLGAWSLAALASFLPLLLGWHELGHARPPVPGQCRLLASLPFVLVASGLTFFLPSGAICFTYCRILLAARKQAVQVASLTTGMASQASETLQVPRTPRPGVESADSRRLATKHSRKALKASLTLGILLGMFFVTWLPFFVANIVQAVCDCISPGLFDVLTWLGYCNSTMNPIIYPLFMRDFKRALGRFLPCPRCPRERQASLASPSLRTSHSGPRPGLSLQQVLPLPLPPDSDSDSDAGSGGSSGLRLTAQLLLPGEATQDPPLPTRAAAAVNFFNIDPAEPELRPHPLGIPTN

| Compound | inhibition at 0.1 µM [1] [%] | inhibition at 0.01 µM [2] [%] | Ki [nM] | inhibition at 1 µM [3] [%] | inhibition at 0.1 µM [%] | inhibition at 0.01 µM [%] |
| --- | --- | --- | --- | --- | --- | --- |
| CC1=C(C2CCCN(C)C2)c2cc(NS(=O)(=O)c3c(Cl)nc4sccn34)ccc2C1 (stereo not shown) [Example 46, 6-Chloro-N-[2-methyl-3-(1-methylpiperidin-3-yl)-1H-inden-5-yl]imidazo[2,1-b] [1,3]thiazole-5-sulfonamide] | 85.8 | 77.6 |  |  |  |  |
| CC1=C(CCN2CCCC2)c2cc(NS(=O)(=O)c3c(Cl)nc4sccn34)ccc2C1 [Example 29, N-[3-(2-Pyrrolidin-1-ylethyl)-2-methyl-1H-inden-5-yl]-6-chloroimidazo[2,1-b]thiazole-5-sulfonamide] | 82 | 53 |  |  |  |  |
| CC1=C(CCN(C)C)c2cc(NS(=O)(=O)c3ccc4ccccc4c3)ccc2/C1=C\c1ccccc1 [Example 33, N-[1(Z)-Benzylidene-3-(2-dimethylaminoethyl)-2-methyl-1H-inden-5-yl]naphthalene-2-sulfonamide] |  |  | 216 |  |  |  |
| Cc1c(S(=O)(=O)Nc2ccc3c(c2)C(CCN(C)C)=CC3(C)C)sc2ccc(Cl)cc12 [Example 42, 5-Chloro-N-{3-[2-(dimethylamino)ethyl]-1,1-dimethyl-1H-inden-5-yl}-3-methylbenzo[b]thiophene-2-sulfonamide] | 2.3 | -7.5 |  |  |  |  |
| CC1=C(CCN2CCCC2)c2cccc(NS(=O)(=O)c3ccc4ccccc4c3)c2C1 [Example 36, N-[2-Methyl-1-(2-pyrrolidin-1-ylethyl)-3H-inden-4-yl]naphthalene-2-sulfonamide] |  |  | 157 | 72 |  |  |
| CC1=C(CCN(C)C)c2cc(Cl)ccc2C1 [Example 47, 2-(5-Chloro-2-methyl-1H-inden-3-yl)-N,N-dimethylethanamine] |  |  |  |  | 8.9 | 16.2 |
| CC1=C(CCN2CCCC2)c2cc(NS(=O)(=O)c3ccc(N)cc3)ccc2C1 [Example 32, 4-Amino-N-[3-(2-pyrrolidin-1-ylethyl)-2-methyl-1H-inden-5-yl]benzene sulfonamide] | 63 | 26 |  |  |  |  |
| CN(C)CCC1=CC(C)(C)c2ccc(NS(=O)(=O)c3c(Cl)nc4sccn34)cc21 [Example 41, 6-Chloro-N-{3-[2-(dimethylamino)ethyl]-1,1-dimethyl-1H-inden-5-yl}imidazo[2,1-b] [1,3]thiazole-5-sulfonamide] | 24.5 | 9.4 |  |  |  |  |
| CC1=C(CCN2CCCC2)c2cc(NS(=O)(=O)c3ccc4ccccc4c3)ccc2C1 [Example 35, N-[2-Methyl-3-(2-pyrrolidin-1-ylethyl)-1H-inden-5-yl]naphthalene-2-sulfonamide] |  |  | 62.9 | 92 |  |  |
| O=S(=O)(Nc1ccc2c(c1)C(CCN1CCCC1)=CC2)c1ccc2ccccc2c1 [Example 37, N-[3-(2-Pyrrolidin-1-ylethyl)-1H-inden-5-yl]naphthalene-2-sulfonamide] |  |  | 46.3 | 92 |  |  |
| CC1=C(CCN2CCCC2)c2cc(NS(=O)(=O)c3sc4ccc(Cl)cc4c3C)ccc2C1 [Example 38, N-[2-Methyl-3-(2-pyrrolidin-1-ylethyl)-1H-inden-5-yl]-5-chloro-3-methylbenzo[b]thiophene-2-sulfonamide] |  |  | 20.2 | 100 |  |  |
| CC1=C(C2CCN(C)C2)c2cc(NS(=O)(=O)c3c(Cl)nc4sccn34)ccc2C1 (stereo not shown) [Example 45, 6-Chloro-N-[2-methyl-3-(1-methylpyrrolidin-3-yl)-1H-inden-5-yl]imidazo[2,1-b] [1,3]thiazole-5-sulfonamide] | 5.4 | 7.4 |  |  |  |  |

Now from value to compound, other results behind:

| inhibition at 0.1 µM [1] [%] | inhibition at 0.01 µM [2] [%] | Ki [nM] | inhibition at 1 µM [3] [%] | Compound | inhibition at 0.1 µM [%] | inhibition at 0.01 µM [%] |
| --- | --- | --- | --- | --- | --- | --- |
| 78.4 | 32 |  |  | CC1=C(CCN(C)C)c2cc(NS(=O)(=O)c3cccc4ccccc34)ccc2C1 [Example 43, N-{3-[2-(Dimethylamino)ethyl]-2-methyl-1H-inden-5-yl}naphthalene-1-sulfonamide] |  |  |
| 88.3 | 53 |  |  | CC1=C(CCN(C)C)c2cc(NS(=O)(=O)c3csc4ccccc34)ccc2C1 [Example 44, N-{3-[2-(Dimethylamino)ethyl]-2-methyl-1H-inden-5-yl}-1-benzothiophene-3-sulfonamide] |  |  |
| 16 | 8 |  | 45 | CC1=C(CCO)c2cc(NS(=O)(=O)c3ccc4ccccc4c3)ccc2C1 [Example 40, N-[3-(2-Hydroxyethyl)-2-methyl-1H-inden-5-yl]naphthalene-2-sulfonamide] |  |  |
| 42 | 13 |  |  | CC1=C(CCN(C)C)c2cc(NS(=O)(=O)c3sc4ccc(Cl)cc4c3C)ccc2C1 [Example 20, N-[3-(2-Dimethylaminoethyl)-2-methyl-1H-inden-5-yl]-5-chloro-3-methylbenzo[b]thiophene-2-sulfonamide] |  |  |
| 71 | 18 | 50.6 | 100 | CC1=C(CCN(C)C)c2cc(NS(=O)(=O)c3ccc4ccccc4c3)ccc2C1 [Example 34, N-[3-(2-Dimethylaminoethyl)-2-methyl-1H-inden-5-yl]naphthalene-2-sulfonamide] |  |  |
|  |  | 4.8 | 97 | CC1=C(CCN(C)C)c2cc(NS(=O)(=O)c3c(Cl)nc4sccn34)ccc2C1 [Example 19, N-[3-(2-Dimethylaminoethyl)-2-methyl-1H-inden-5-yl]-6-chloroimidazo[2,1-b]thiazole-5-sulfonamide] |  |  |
| 51 | 25 |  |  | CC1=C(CCN(C)C)c2cc(S(=O)(=O)Nc3cccc4ccccc34)ccc2C1 [Example 39, N-(Naphthalene-1-yl)-3-(2-dimethylaminoethyl)-2-methyl-1H-indene-5-sulfonamide] |  |  |
